From PubChem BioAssay AID1421 (Emory University Molecular Libraries Screening Center, 2008)
Active and inactive are the calls of the source. How the calls were made is not given here.

Biological target: Prostaglandin E2 receptor EP2 subtype (Homo sapiens) (UniProt P43116)
Assay: EP2 receptor modulators, dose response, cell-based, human EP2, PGE2 EC50 shift (AID 1421)
Conditions: EP2-expressing cells, PGE2 EC50 shift by compound

Chain of Prostaglandin E2 receptor EP2 subtype (Homo sapiens) (P43116 whole entry, looked up): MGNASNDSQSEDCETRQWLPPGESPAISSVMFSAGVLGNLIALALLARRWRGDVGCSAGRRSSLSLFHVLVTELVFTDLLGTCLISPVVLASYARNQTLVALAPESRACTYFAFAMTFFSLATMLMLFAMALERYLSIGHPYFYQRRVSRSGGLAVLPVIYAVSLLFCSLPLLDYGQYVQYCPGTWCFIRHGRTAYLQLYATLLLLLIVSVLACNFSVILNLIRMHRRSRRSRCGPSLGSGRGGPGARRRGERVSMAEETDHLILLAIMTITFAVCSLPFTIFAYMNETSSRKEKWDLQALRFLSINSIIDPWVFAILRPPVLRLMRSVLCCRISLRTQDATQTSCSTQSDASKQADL

| Structure (SMILES) | outcome |
| --- | --- |
| COc1ccc(-c2cc(-c3ccccc3)nc(N3CCCC3)n2)cc1OC | active |
| N#CC1=C(N)S[C@H](C(=O)C23CC4CC(CC(C4)C2)C3)[C@H]1c1ccncc1 | active |
| COc1cc(-c2nc(-c3cccc(C(F)(F)F)c3)no2)cc(OC)c1OC | active |
| CC(C)OC(=O)c1c(NC(=O)CCn2nnc3ccccc32)sc2c1CCCC2 | active |
| Cc1noc(C)c1CSc1nc2ccccc2c(=O)n1-c1ccccc1 | active |

Same assay, conditions: EP2-expressing cells, PGE2 EC50 shift by compound; measured here: PGE2 EC50 at 6.7 uM compound

| Structure (SMILES) | PGE2 EC50 with compound [nM] |
| --- | --- |
| COc1ccc(-c2cc(-c3ccccc3)nc(N3CCCC3)n2)cc1OC | 1.12 |
| C=CCSc1ncnc2sc(C)c(C)c12 | 1.3 |
| Cn1c(=O)c2c(nc(CN3CCN(c4ccccc4)CC3)n2Cc2c(F)cccc2Cl)n(C)c1=O | 1.38 |
| N#CC1=C(N)S[C@H](C(=O)C23CC4CC(CC(C4)C2)C3)[C@H]1c1ccncc1 | 0.96 |
| O=c1c(C=NCc2ccccc2)c(NCc2ccccc2)nc2ccccn12 | 0.96 |
| Cc1cc2ccccc2nc1SCC(=O)NC1CCCCC1 | 2.75 |
| C=CCn1c(=O)c(C(=O)NCCc2ccccc2)c(O)c2ccccc21 | 2.43 |
| COc1cc(-c2nc(-c3cccc(C(F)(F)F)c3)no2)cc(OC)c1OC | 0.89 |
| N#CC1(Cc2ccccc2Cl)c2ccccc2C=CN1C(=O)c1ccccc1 (configuration not stated) | 1.54 |
| Oc1ccc(/C=N/N2CCN(C3c4ccccc4-c4ccccc43)CC2)c(O)c1 | 2.52 |
| N#Cc1c(NC(=O)CSc2n[nH]c(Cc3ccccc3)n2)oc(-c2ccccc2)c1-c1ccccc1 | 1.4 |
| CCOC(=O)CSc1ncnc2c1sc1nc(N3CCOCC3)c3c(c12)CCCC3 | 0.32 |
| CC(C)OC(=O)c1c(NC(=O)CCn2nnc3ccccc32)sc2c1CCCC2 | 1 |
| COc1cnc(N(C)C)nc1Sc1cccc(Cl)c1 | 1.13 |
| C[C@H](CCC(=O)O)[C@@H]1CC[C@@H]2[C@H]3CC[C@@H]4C[C@H](O)CC[C@@]4(C)[C@@H]3CC[C@]21C | 1.38 |
| COC(=O)CSc1nc2c(c(C3CC=CCC3)c1C#N)CCC2 (configuration not stated) | 1.26 |
| Cc1noc(C)c1CSc1nc2ccccc2c(=O)n1-c1ccccc1 | 1.3 |
| O=C1CCCc2ccccc2N1Cc1c(Cl)cccc1Cl | 1.04 |
| O=C1CC(O)(c2ccccc2)C(c2ccccc2)=C1c1ccccc1 (configuration not stated) | 0.87 |
| CC(=O)N1Cc2ccccc2C(C)CC12CCCCC2 (configuration not stated) | 0.93 |
| CCn1nnc(-c2ccccc2NC(=O)c2cc(OC)cc(OC)c2)n1 | 0.95 |

| Structure (SMILES) | PGE2 EC50 with compound [nM] |
| --- | --- |
| c1cncc(-c2nc(N3CCCCCC3)c3ccccc3n2)c1 | 0.91 |
| O=C(O)c1cc2c(s1)-c1ccccc1OC2 | 0.91 |
| CC(Sc1cnc2ccccc2n1)C(=O)O (configuration not stated) | 2.61 |
| Cc1ccccc1NC(=S)N(Cc1ccco1)C(C)c1cccs1 (configuration not stated) | 1.68 |
| Cc1ccc(NCc2n[nH]c(=S)n2Cc2ccccc2)cc1Cl | 1.2 |
| Cc1nn2c(N3CCCC3)cc(C(C)C)nc2c1-c1ccccc1 | 0.84 |
| CCCCCCCCCc1ccc(O)cc1 | 0.74 |
| O=C(CSc1nnc(Cc2ccccc2)n1Cc1ccco1)NC12CC3CC(CC(C3)C1)C2 | 1.73 |
| CSc1nc(NCc2ccco2)c2ccccc2n1 | 1.3 |
| CCOC(=O)c1c(NC(=O)Cn2nnc3ccccc32)sc2c1CCC(C)C2 (configuration not stated) | 1.14 |
| C[C@H](CN(C)C)C(=O)c1ccccc1C(=O)O | 1.41 |
| CCOC(=O)c1c(NC(=O)CN(CC)CC)sc2c1CCN(C(=O)OCC)C2 | 1.34 |
| CC(C)C1(C)N=C(c2ncccc2C(=O)O)NC1=O (configuration not stated) | 2.52 |
| COc1cc(C)c(NC(c2ccccc2)c2ccccc2)cc1OC | 1.5 |
| Cc1onc(-c2c(F)cccc2Cl)c1C(=O)OCn1nnc2ccccc2c1=O | 0.92 |
| CCOC(=O)CC(=O)CSc1nc(-c2ccc3c(c2)OCO3)cc(C(F)(F)F)c1C#N | 1.24 |
| Cc1ccc(C)n1-n1c(C)nc2scc(-c3cccs3)c2c1=O | 1.02 |
| O=C(/C=C/Nc1ccccc1Oc1ccccc1)c1ccco1 | 2.67 |
| COc1ccc(C(=O)/C(=C/O)N=Nc2ccc(F)cc2)cc1 | 1 |
| CC1CCN(c2nc(-c3ccncc3)nc3ccccc23)CC1 | 1 |
| Cc1cc(-c2sccc2C)nc(-n2cccc2)n1 | 2.5 |
